In patent US12617762B2, “Carboxy derivatives with antiinflamatory properties” (Sitryx Therapeutics Limited, priority 2019, dated 2026):
pEC50, pIC50: −log10 of the molar value. Read-outs that look alike come from different tables or passages of the source.

How the values were obtained:
[1] = tested on: IL-1β cytokine output from THP-1s; experiment: THP-1 AlphaLISA IL-1β cytokine inhibition assay; assay type: cell-based; conditions: for pIC50: Homo sapiens
Summary of the method: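 THP-1 cells differentiated with PMA for 72 h, pre-incubated with compound 30 min, then LPS-primed 24 h and Nigericin-stimulated 1 h (37° C./5% CO2). Supernatant IL-1β measured by AlphaLISA; percentage inhibition normalised to +LPS (high) and −LPS (low) plate controls.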

[2] = Hepatocyte stability assay, human; assay type: in vitro ADME; conditions: human, hepatocytes; for hepatocyte CLint at 10 μM: Hepatocyte stability Clint; for half-life at 10 μM: Hepatocyte stability T½
Summary of the method: (§1)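 Cryopreserved hepatocytes (viability >70%), 0.5×10^6 cells/mL in Leibovitz buffer, preincubated 10 min at 37° C, then 10 μM compound (0.1% DMSO) in duplicate; sampled 0-60 min, acetonitrile quench, LC-MS/MS. CLint and half-life from ln % remaining vs time; buffer-only incubation as negative control.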

[3] = tested on: NRF2 (nuclear factor erythroid 2-related factor 2); experiment: NRF2 +/-GSH activation assay (DiscoverX PathHunter NRF2 translocation kit, U2OS cells); assay type: cell-based
Summary of the method: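 U2OS PathHunter eXpress cells, 24 h post-plating, treated with compound ±GSH (+GSH arm: 30 min compound–GSH pre-incubation, 6 mM working GSH), then 6 h at 37 °C. NRF2 nuclear translocation read by enzyme-fragment-complementation chemiluminescence; % activation normalised to DMF high and untreated low controls.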

[4] = Hepatocyte stability assay, mouse; assay type: in vitro ADME; conditions: mouse, hepatocytes; for hepatocyte CLint at 10 μM: Hepatocyte stability Clint; for half-life at 10 μM: Hepatocyte stability T½
Summary of the method: as §1

[5] = tested on: IL-6 cytokine output from THP-1s; experiment: THP-1 AlphaLISA IL-6 cytokine inhibition assay; assay type: cell-based; conditions: Homo sapiens
Summary of the method: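 THP-1 cells differentiated with PMA for 72 h, then pre-incubated with compound 30 min, stimulated with LPS 24 h, then Nigericin 1 h, all at 37° C. Supernatant IL-6 measured by AlphaLISA. Percentage inhibition normalized to +/− LPS plate controls.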

[6] = THP-1, differentiated THP-1 cells, LPS then nigericin
[7] = +GSH, 30 minute compound-GSH pre-incubation, read-out: NRF2 activation +GSH EC50
[8] = +GSH, normalised to DMF high control
[9] = −GSH, U2OS PathHunter cells, 6 hours compound treatment, read-out: NRF2 activation −GSH EC50
[10] = −GSH, normalised to DMF high control
[11] = differentiated THP-1 cells, LPS then nigericin
[12] = THP-1, differentiated THP-1 cells, data from repeated experiments

| pIC50 [5, 11] | SMILES | pIC50 [1, 6] | hepatocyte CLint at 10 μM [2] [µL/min/1e6 cells] | half-life at 10 μM [2] [min] | pEC50 [3, 7] | NRF2 activation +GSH Emax [3, 8] [%] | pEC50 [3, 9] | NRF2 activation −GSH Emax [3, 10] [%] | hepatocyte CLint at 10 μM [4] [µL/min/1e6 cells] | half-life at 10 μM [4] [min] | pIC50 [5, 6] | IL-1β lowering, result in words ([1]; THP-1 IL-1β assay) | pIC50 ([1]; THP-1, Table 3, head to head comparison of exo vs endo double bond compounds) | pEC50 ([3]; −GSH, Table 5 exo vs endo comparison, read-out: −GSH EC50) | −GSH Emax ([3]; −GSH, normalised to DMF high control, Table 5 exo vs endo comparison) [%] | pIC50 [1, 12] | pIC50 [5, 12] |
| --- | --- | --- | --- | --- | --- | --- | --- | --- | --- | --- | --- | --- | --- | --- | --- | --- | --- |
|  | C=C(Cc1nc(Cc2ccc(CCCC)cc2)no1)C(=O)O [Example 20, 2-((3-(4-butylbenzyl)-1,2,4-oxadiazol-5-yl)methyl)acrylic acid] | 4.83 | 70 | 24 | 5.52 | 146 | 5.54 | 206 | 427 | 4 | 5.57 |  |  |  |  |  |  |
|  | C=C(Cc1nc(C2CC3(C2)CC2(CCC2)C3)no1)C(=O)O [Example 62, 2-((3-(dispiro[3.1.3^6.1^4]decan-2-yl)-1,2,4-oxadiazol-5-yl)methyl)acrylic acid] | 4.75 | 57 | 26 | 4.56 | 149 | 4.70 | 229 | 119 | 10 | 4.67 |  |  |  |  |  |  |
|  | C=C(Cc1nc([C@H](C)CCCCCC)no1)C(=O)O [Example 40, (R)-2-((3-(octan-2-yl)-1,2,4-oxadiazol-5-yl)methyl)acrylic acid] | 4.57 | 21 | 66 | 4.56 | 81 | 4.60 | 168 | 82 | 20 | 4.74 |  |  |  |  |  |  |
|  | C=C(Cc1nc(Cc2ccc(CCC)cc2)no1)C(=O)O [Example 70, 2-((3-(4-propylbenzyl)-1,2,4-oxadiazol-5-yl)methyl)acrylic acid] | 4.60 | 13 | 117 | 4.81 | 147 | 4.87 | 188 | 58 | 26 | 5.03 |  |  |  |  |  |  |
| 4.48 | C=C(Cc1noc(C2(c3ccc(Br)cc3)CC2)n1)C(=O)O [Example 89, 2-((5-(1-(4-bromophenyl)cyclopropyl)-1,2,4-oxadiazol-3-yl)methyl)acrylic acid] | 4.91 | 38 | 41 | 4.37 | 63 | 4.51 | 99 | 336 | 5 |  |  |  |  |  |  |  |
|  | C=C(Cc1nc(C(C)CCCCCC(F)(F)F)no1)C(=O)O (stereo not shown) [Example 54, 2-((3-(8,8,8-trifluorooctan-2-yl)-1,2,4-oxadiazol-5-yl)methyl)acrylic acid] | < 4.00 | 5 | 268 | 4.37 | 50 | 4.35 | 115 | 13 | 102 | 4.72 | not effective |  |  |  |  |  |
|  | C=C(Cc1nc(-c2ccc(C(F)(F)CCCC)cc2)no1)C(=O)O [Example 79, 2-((3-(4-(1,1-difluoropentyl)phenyl)-1,2,4-oxadiazol-5-yl)methyl)acrylic acid] | 5.17 | 147 | 11 | 5.68 | 181 | 5.74 | 271 | > 460 | < 3 | 5.66 |  |  |  |  |  |  |
|  | C=C(Cc1nc(CCCCCCCCC)no1)C(=O)O [Example 53, 2-((3-nonyl-1,2,4-oxadiazol-5-yl)methyl)acrylic acid] | 5.74 | 329 | 4 | 5.74 | 71 | 5.74 | 178 | > 460 | < 3 | 5.59 |  |  |  |  |  |  |
|  | C=C(Cc1nc(C2(c3ccc(Br)cc3)CC2)no1)C(=O)O [Example 50, 2-((3-(1-(4-bromophenyl)cyclopropyl)-1,2,4-oxadiazol-5-yl)methyl)acrylic acid] | 5.35 | 25 | 53 | 4.41 | 88 | 4.44 | 150 | 146 | 9 | 4.69 |  | 5.35 | 4.44 | 150 |  |  |
|  | C=C(Cc1nc(Cc2ccc(C3CCCC3)cc2)no1)C(=O)O [Example 112, 2-((3-(4-cyclopentylbenzyl)-1,2,4-oxadiazol-5-yl)methyl)acrylic acid] | 4.85 | 25 | 61 | 4.97 | 283 | 5.14 | 284 | 160 | 12 | 5.36 |  |  |  |  |  |  |
|  | C=C(Cc1nc(C(F)(F)CCCCCCC)no1)C(=O)O [Example 88, 2-((3-(1,1-difluorooctyl)-1,2,4-oxadiazol-5-yl)methyl)acrylic acid] | 5.51 | 134 | 12 | 5.52 | 205 | 5.55 | 237 | > 460 | < 3 | 5.55 |  |  |  |  |  |  |
|  | C=C(Cc1nc(Cc2ccc(C(F)(F)CCCC)cc2)no1)C(=O)O [Example 93, 2-((3-(4-(1,1-difluoropentyl)benzyl)-1,2,4-oxadiazol-5-yl)methyl)acrylic acid] | 4.79 | 40 | 38 | 4.84 | 190 | 4.90 | 224 | > 460 | < 3 | 5.06 |  |  |  |  |  |  |
|  | C=C(Cc1nc(C2(c3ccc(C(F)(F)F)cc3)CC2)no1)C(=O)O [Example 22, 2-((3-(1-(4-(trifluoromethyl)phenyl)cyclopropyl)-1,2,4-oxadiazol-5-yl)methyl)acrylic acid] | 4.96 | 20 | 84 | 4.22 | 62 | 4.31 | 69 | 42 | 41 |  |  |  |  |  | 5.06 | 4.36 |
| 4.73 | C=C(Cc1noc(C(F)(F)c2ccc(Br)cc2)n1)C(=O)O [Example 85, 2-((5-((4-bromophenyl)difluoromethyl)-1,2,4-oxadiazol-3-yl)methyl)acrylic acid] | 4.87 | 20 | 77 | 4.46 | 208 | 4.67 | 282 | 131 | 13 |  |  |  |  |  |  |  |
| 4.88 | C=C(Cc1nc(C(F)(F)c2ccc(SC(F)(F)F)cc2)no1)C(=O)O [Example 155, 2-((3-(difluoro(4-((trifluoromethyl)thio)phenyl)methyl)-1,2,4-oxadiazol-5-yl)methyl)acrylic acid] | 5.04 | 8 | 201 | 4.86 | 123 | 4.95 | 201 | 87 | 17 |  |  |  |  |  |  |  |
|  | C=C(Cc1nc(C(F)(F)c2ccc(Br)cc2)no1)C(=O)O [Example 90, 2-((3-((4-bromophenyl)difluoromethyl)-1,2,4-oxadiazol-5-yl)methyl)acrylic acid] | 5.47 | 7 | 206 | 4.36 | 130 | 4.34 | 172 | 34 | 56 | 4.80 |  |  |  |  |  |  |
| 5.62 | C=C(Cc1nc(C(F)(F)c2ccc(CCCC)cc2)no1)C(=O)O [Example 91, 2-((3-((4-butylphenyl)difluoromethyl)-1,2,4-oxadiazol-5-yl)methyl)acrylic acid] | 5.42 | 74 | 21 | 5.47 | 190 | 5.49 | 231 | 320 | 6 |  |  |  |  |  |  |  |
